Results: patent publication CN102488699A, “芍药苷在制备防治肺纤维化药物中的应用” (China Pharmaceutical University, priority 2011, dated 2012)

Assays:
[1] = system: pulmonary fibrosis mice [肺纤维化小鼠]; assay: Effect on survival rate of mice with bleomycin-induced pulmonary fibrosis; format: in vivo, mouse; settings: intragastric, once daily from day 1, model group 50.0%; for survival rate: day 21 after bleomycin (5 mg/kg intratracheal)
[2] = system: lung tissue of pulmonary fibrosis mice [肺纤维化小鼠肺组织]; assay: Effect on lung tissue lesions of pulmonary fibrosis mice, HE staining (Fig. 1); format: in vivo, mouse; settings: intragastric, once daily, day 21, vs model group
[3] = system: lung tissue of pulmonary fibrosis mice [肺纤维化小鼠肺组织]; assay: Effect on collagen deposition in lung tissue of pulmonary fibrosis mice, Masson staining (Fig. 2); format: in vivo, mouse; settings: intragastric, once daily, day 21, vs model group
[4] = system: bleomycin model mice [博来霉素模型小鼠]; assay: Effect on degree of alveolitis and pulmonary fibrosis in bleomycin model mice (Table 1); format: in vivo, mouse; settings: intragastric, once daily, day 21, n=3
[5] = system: hydroxyproline in lung tissue of pulmonary fibrosis mice [肺纤维化小鼠肺组织中羟脯氨酸]; assay: Effect on hydroxyproline content in lung tissue of pulmonary fibrosis mice (Fig. 3); format: in vivo, mouse
[6] = system: smooth muscle actin (α-SMA) [平滑肌肌动蛋白(α-SMA)]; assay: Effect on α-SMA expression in lung tissue of pulmonary fibrosis mice, Western blot (Fig. 4); format: in vivo, mouse; settings: intragastric, once daily, day 21
[7] = system: TGF-β1 protein [TGF-β1蛋白]; assay: Effect on TGF-β1 protein expression in lung tissue of pulmonary fibrosis mice, Western blot (Fig. 5); format: in vivo, mouse; settings: intragastric, once daily, day 21
[8] = system: lipopolysaccharide-induced acute lung injury in mice [脂多糖引起的小鼠急性肺损伤]; settings: intraperitoneal injection, Inflamm Res 2011,60(10):981-990; cited from earlier work

C[C@@]12C[C@@]3(O)O[C@@H](O1)[C@]1(COC(=O)c4ccccc4)[C@H]3C[C@@]12O[C@@H]1O[C@H](CO)[C@@H](O)[C@H](O)[C@H]1O [芍药苷, Paeoniflorin]
survival rate ([1]; 50 mg/kg): 87.5%
survival rate ([1]; 100 mg/kg): 75.0%
degree of alveolitis, HE staining ([2]; 100 mg/kg): 肺泡炎程度明显减轻
lung tissue lesions, HE staining ([2]; 100 mg/kg): 肺组织结构较完整清晰,少量炎性细胞浸润及成纤维细胞增生,病变程度较模型组轻
collagen deposition and pulmonary fibrosis, Masson staining ([3]; 100 mg/kg): 肺组织结构较完整清晰,肺泡间隔轻度增厚,胶原沉积减少,肺纤维化程度明显减轻
alveolar inflammation ([4]; 100 mg/kg): 抑制肺泡炎症
degree of pulmonary fibrosis ([4]; 100 mg/kg): 显著减低肺纤维化程度
inhibition of collagen synthesis (in words) ([5]; 50, 100 mg/kg, intragastric, once daily, day 21): 剂量依赖性抑制胶原的合成
inhibition at 50 mg/kg ([5]; Mus musculus, po, 504 h, 50 mg/kg, intragastric, once daily, day 21, read-out: inhibition rate of hydroxyproline content in lung tissue): 20.6%
inhibition at 100 mg/kg ([5]; Mus musculus, po, 504 h, 100 mg/kg, intragastric, once daily, day 21, read-out: inhibition rate of hydroxyproline content in lung tissue): 31.4%
α-SMA content in lung tissue ([6]; 100 mg/kg): 显著降低
TGF-β1 expression in lung tissue ([7]; 100 mg/kg): 显著降低
protective effect on acute lung injury [8]: 具有明显的保护作用

CC(=O)OCC(=O)[C@@]1(O)CC[C@H]2[C@@H]3CCC4=CC(=O)C=C[C@]4(C)[C@H]3C(=O)C[C@@]21C [泼尼松, 醋酸泼尼松, reference compound]
survival rate (in words) ([1]; 6 mg/kg, day 21 after bleomycin): 与模型组相近
degree of alveolitis, HE staining ([2]; 6 mg/kg): 肺泡炎程度明显减轻
lung tissue lesions, HE staining ([2]; 6 mg/kg): 肺组织结构较完整清晰,少量炎性细胞浸润及成纤维细胞增生,病变程度较模型组轻
collagen deposition and pulmonary fibrosis, Masson staining ([3]; 6 mg/kg): 肺组织结构较完整清晰,肺泡间隔轻度增厚,胶原沉积减少,肺纤维化程度明显减轻
alveolar inflammation ([4]; 6 mg/kg): 抑制肺泡炎症
degree of pulmonary fibrosis ([4]; 6 mg/kg): 显著减低肺纤维化程度
inhibition at 6 mg/kg ([5]; Mus musculus, po, 504 h, read-out: inhibition rate of hydroxyproline content in lung tissue): 31.2%
α-SMA content in lung tissue ([6]; 6 mg/kg): 显著降低
TGF-β1 expression in lung tissue ([7]; 6 mg/kg): 显著降低
